Data reported in patent US5187171A (G. D. Searle & Co., priority 1989, dated 1993).

What was measured:
[1] = tested on: mentally disturbed patients; conditions: 500 mg per day, cited from earlier work
[2] = molecular target: T1, NMDA receptor-associated glycine recognition site ("Glycine B receptor") (Rattus norvegicus, UniProt P35439); test: TCP modulation assay (stimulation of [3H]TCP binding); type: biochemical; conditions: basal [3H]TCP binding
T1 construct: synaptic plasma membranes (SPM) prepared from rat forebrain; from tissue; host or cells: rat forebrain (male Sprague-Dawley, animals from Sasco) synaptic plasma membranes, Triton X-100 washed
Method: [^3 H]TCP binding was performed using Triton X-100 washed synaptic plasma membranes (SPM) prepared from rat forebrain (30-45 day old, male Sprague-Dawley; Sasco, St. Charles, Mo.) as described previously [J. W. Thomas, W. F. Hood, J. B. Monahan, P. C. Contreras and T. L. O'Donohue, Brain Res., 442, 396-398 (1988)]. […] The samples were then filtered through glass fiber filters (Schleicher and Schuell #32) which were pretreated with 0.05% (v/v) polyethylenimine. The filters were washed and the radioactivity quantitated by liquid scintillation spectrometry. […] The EC50 values for the stimulation of [^3 H]TCP binding were determined using a four parameter logistic regression analysis.

In the case of `N[C@@H]1CONC1=O` [D-cycloserine, 4-amino-3-isoxazolidone], the Clinical response ([1]; mentally disturbed patients) is listed as “improvements in depression, insomnia, anexoria or tension were found for some patients”, the “Clinical response of patients suffering from severe neurosis or psychosis” value [1] is listed as “responded poorly” and the “Maximal stimulation of [3H]TCP binding compared with glycine and D-serine” value [2] is listed as “significantly less than that produced by both glycine and D-serine”.
